Source: patent US4870097A, “Pharmaceutical use of derivatives of tryptophan” (priority 1984, dated 1989)

What follows are molecules tested on analgesic activity of morphine (assay: Tail Flick Test: increase in the analgesic effect of morphine). Conditions: 10'; compound 10 mg/kg i.p. + morphine 2 mg/kg (row Morphine: alone); ± S.E.
Assay type: in vivo, rats
Description: Increase in the analgesic effect of analgesic-narcotic drugs in rats in the Tail Flick Test
The method is that described by Harris et al. (J. Pharmacol. Exp. Ther. 143 (1964) 141-148).
Male rats are used which have a weight of about 150-200 g and which have not been fasting. A point is chosen on the tail and this is irradiated by a heat source (75° C.) and the time (in seconds) for which the animal remains without moving its tail is measured.
A maximum period of time under the heat source of 8 seconds is chosen after which the animal is, in any case, removed in order to avoid tissue damage. The measurement is effected before (controls) and after treatment with the drugs.
. The percentage variation is calculated for each individual animal by the following formula: [formula] The measurements are carried out 10, 20, 30, 45, 60 and 90 minutes after treatment with the analgesics.
The results obtained are given in Table 1 which records the groups treated and the doses administered, the
average percentage variations (calculated on groups of five animals) in […]
For `Cc1ccc(COC(=O)N[C@@H](Cc2c[nH]c3ccccc23)C(=O)O)cc1Cl` [Compound 10], the “percentage variation in the latency of the pain sensation, 10'” value (shortened to “percentage variation in the latency … 10'”) was 51.5 ± 48.9%. `N#Cc1ccc(COC(=O)N[C@@H](Cc2c[nH]c3ccccc23)C(=O)O)cc1` [Compound 11] was tested, and the “percentage variation in the latency … 10'” value was 53.4 ± 13.5%. In the case of `O=C(N[C@@H](Cc1c[nH]c2ccccc12)C(=O)O)c1ccc(Cl)cc1` [Compound 12], the “percentage variation in the latency … 10'” value is reported as 42.2 ± 19.4%.

Same assay, conditions: 20'; compound 10 mg/kg i.p. + morphine 2 mg/kg (row Morphine: alone); ± S.E.
`Cc1ccc(COC(=O)N[C@@H](Cc2c[nH]c3ccccc23)C(=O)O)cc1Cl` [Compound 10] was tested, and the “percentage variation in the latency of the pain sensation, 20'” value (“percentage variation in the latency … 20'” for short) was 58.3 ± 16.5%. With `N#Cc1ccc(COC(=O)N[C@@H](Cc2c[nH]c3ccccc23)C(=O)O)cc1` [Compound 11] the “percentage variation in the latency … 20'” value was 80.0 ± 13.0%. With `O=C(N[C@@H](Cc1c[nH]c2ccccc12)C(=O)O)c1ccc(Cl)cc1` [Compound 12] the “percentage variation in the latency … 20'” value was 50.5 ± 17.0%.

Same assay, conditions: 30'; compound 10 mg/kg i.p. + morphine 2 mg/kg (row Morphine: alone); ± S.E.
With `Cc1ccc(COC(=O)N[C@@H](Cc2c[nH]c3ccccc23)C(=O)O)cc1Cl` [Compound 10] the “percentage variation in the latency of the pain sensation, 30'” value (“percentage variation in the latency … 30'” below) was 66.0 ± 14.1%. In the case of `N#Cc1ccc(COC(=O)N[C@@H](Cc2c[nH]c3ccccc23)C(=O)O)cc1` [Compound 11], the “percentage variation in the latency … 30'” value is reported as 90.4 ± 9.6%. In the case of `O=C(N[C@@H](Cc1c[nH]c2ccccc12)C(=O)O)c1ccc(Cl)cc1` [Compound 12], the “percentage variation in the latency … 30'” value is reported as 69.7 ± 19.8%.

Same assay, conditions: 45'; compound 10 mg/kg i.p. + morphine 2 mg/kg (row Morphine: alone); ± S.E.
`Cc1ccc(COC(=O)N[C@@H](Cc2c[nH]c3ccccc23)C(=O)O)cc1Cl` [Compound 10] was tested, and the “percentage variation in the latency of the pain sensation, 45'” value (shortened to “percentage variation in the latency … 45'”) was 56.9 ± 17.0%. In the case of `N#Cc1ccc(COC(=O)N[C@@H](Cc2c[nH]c3ccccc23)C(=O)O)cc1` [Compound 11], the “percentage variation in the latency … 45'” value is reported as 84.9 ± 15.1%. For `O=C(N[C@@H](Cc1c[nH]c2ccccc12)C(=O)O)c1ccc(Cl)cc1` [Compound 12], the “percentage variation in the latency … 45'” value was 68.9 ± 13.4%.

Same assay, conditions: 60'; compound 10 mg/kg i.p. + morphine 2 mg/kg (row Morphine: alone); ± S.E.
In the case of `Cc1ccc(COC(=O)N[C@@H](Cc2c[nH]c3ccccc23)C(=O)O)cc1Cl` [Compound 10], the “percentage variation in the latency of the pain sensation, 60'” value (“percentage variation in the latency … 60'” for short) is reported as 56.2 ± 23.5%. In the case of `N#Cc1ccc(COC(=O)N[C@@H](Cc2c[nH]c3ccccc23)C(=O)O)cc1` [Compound 11], the “percentage variation in the latency … 60'” value is reported as 55.6 ± 18.3%. With `O=C(N[C@@H](Cc1c[nH]c2ccccc12)C(=O)O)c1ccc(Cl)cc1` [Compound 12] the “percentage variation in the latency … 60'” value was 32.7 ± 20.1%.

Same assay, conditions: 90'; compound 10 mg/kg i.p. + morphine 2 mg/kg (row Morphine: alone); ± S.E.
`Cc1ccc(COC(=O)N[C@@H](Cc2c[nH]c3ccccc23)C(=O)O)cc1Cl` [Compound 10] was tested, and the “percentage variation in the latency of the pain sensation, 90'” value (“percentage variation in the latency … 90'” below) was 34.2 ± 8.4%. `N#Cc1ccc(COC(=O)N[C@@H](Cc2c[nH]c3ccccc23)C(=O)O)cc1` [Compound 11] was tested, and the “percentage variation in the latency … 90'” value was 50.9 ± 20.7%. In the case of `O=C(N[C@@H](Cc1c[nH]c2ccccc12)C(=O)O)c1ccc(Cl)cc1` [Compound 12], the “percentage variation in the latency … 90'” value is reported as 16.3 ± 7.4%.

Same assay, conditions: mean 10'-90'; compound 10 mg/kg i.p. + morphine 2 mg/kg (row Morphine: alone)
With `Cc1ccc(COC(=O)N[C@@H](Cc2c[nH]c3ccccc23)C(=O)O)cc1Cl` [Compound 10] the “M(10'-90') average percentage variation” value was 55.5%. With `N#Cc1ccc(COC(=O)N[C@@H](Cc2c[nH]c3ccccc23)C(=O)O)cc1` [Compound 11] the “M(10'-90') average percentage variation” value was 72.9%. `O=C(N[C@@H](Cc1c[nH]c2ccccc12)C(=O)O)c1ccc(Cl)cc1` [Compound 12] was tested, and the “M(10'-90') average percentage variation” value was 49.1%.

Same assay, conditions: rat, in vivo
`Cc1ccc(COC(=O)N[C@@H](Cc2c[nH]c3ccccc23)C(=O)O)cc1Cl` [Compound 10] was tested, and the “Potency ratio relative to morphine alone” value was 1.86. For `N#Cc1ccc(COC(=O)N[C@@H](Cc2c[nH]c3ccccc23)C(=O)O)cc1` [Compound 11], the “Potency ratio relative to morphine alone” value was 2.45. For `O=C(N[C@@H](Cc1c[nH]c2ccccc12)C(=O)O)c1ccc(Cl)cc1` [Compound 12], the “Potency ratio relative to morphine alone” value was 1.65.

These molecules were tested on guinea pig gall bladder contracted with CCK-8 (assay: Anti-CCK activity on guinea pig gall bladders in vitro). Conditions: CCK-8 10 ng/ml, concentration antagonising 50% of contracting effect.
Assay type: biochemical
Description: A longitudinal strip of guinea pig gall bladder is placed in a bath of Krebs for isolated organs at a temperature of 32° C. and oxygenated continuously with an oxygen-CO2 mixture (95-5 V/V).
The […] contractions are detected by means of a force transducer and recorded.
The gall bladder is contracted with the use of a CCK-8 solution at a concentration of 10 ng/ml; the antagonistic activity of the compounds of the invention towards the contracting effect of the CCK is determined with the use of different concentrations, the ED50 value, that is the concentration of the compound in mcg/ml capable of antagonising 50% of the contracting effect of the CCK, being determined.
The results obtained are set out in the following table which gives the compounds tested and the ED50 values which are calculated by the method of regression on a test of at least three experiments for each compound studied.
With `Cc1ccc(COC(=O)N[C@@H](Cc2c[nH]c3ccccc23)C(=O)O)cc1Cl` [Compound 10] the “Anti CCK-8 activity, ED50” value was 88.5 µg/mL. `N#Cc1ccc(COC(=O)N[C@@H](Cc2c[nH]c3ccccc23)C(=O)O)cc1` [Compound 11] was tested, and the “Anti CCK-8 activity, ED50” value was 34.3 µg/mL. With `O=C(N[C@@H](Cc1c[nH]c2ccccc12)C(=O)O)c1ccc(Cl)cc1` [Compound 12] the “Anti CCK-8 activity, ED50” value was 206.0 µg/mL.
